{
  "source": "PubChem BioAssay AID1963848",
  "about": "(Molecular Pharmacology Branch, DTP, NCI, 2024)",
  "tested_on": "379773-124-R-J2-PDC spheroid viability",
  "assay": "Anticancer human tumor 379773-124-R-J2-PDC patient-derived endometrial carcinoma cell line growth inhibition [POLQ]",
  "settings": "spheroids with HUVEC and MSC; for IC50: curve of first compound; for viability, T/C: stronger effect = lower value",
  "summary_of_the_method": "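Patient-derived tumour cells were co-cultured with HUVEC and mesenchymal stem cells as multicellular spheroids at 37 °C. They were treated with POLQ inhibitors (novobiocin, ART-558, RP6685) alone or combined with other agents. Top concentrations were at or near clinical Cmax (otherwise 10 microM; SN-38 at 1 microM), decreasing in half-log steps.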",
  "key": {"[1]": {"settings": "second compound 0.0316 µM, first compound 0.0316 µM"}, "[2]": {"settings": "second compound 0.0316 µM, first compound 0.1 µM"}, "[3]": {"settings": "second compound 0.0316 µM, first compound 0.316 µM"}, "[4]": {"settings": "second compound 0.0316 µM, first compound 1 µM"}, "[5]": {"settings": "second compound 0.0316 µM, first compound 3.16 µM"}, "[6]": {"settings": "second compound 0.0316 µM, first compound 10 µM"}, "[7]": {"settings": "second compound 0.1 µM, first compound 0.0316 µM"}, "[8]": {"settings": "second compound 0.1 µM, first compound 0.1 µM"}, "[9]": {"settings": "second compound 0.1 µM, first compound 0.316 µM"}, "[10]": {"settings": "second compound 0.1 µM, first compound 1 µM"}, "[11]": {"settings": "second compound 0.1 µM, first compound 3.16 µM"}, "[12]": {"settings": "second compound 0.1 µM, first compound 10 µM"}, "[13]": {"settings": "second compound 0.316 µM, first compound 0.0316 µM"}, "[14]": {"settings": "second compound 0.316 µM, first compound 0.1 µM"}, "[15]": {"settings": "second compound 0.316 µM, first compound 0.316 µM"}, "[16]": {"settings": "second compound 0.316 µM, first compound 1 µM"}, "[17]": {"settings": "second compound 0.316 µM, first compound 3.16 µM"}, "[18]": {"settings": "second compound 0.316 µM, first compound 10 µM"}, "[19]": {"settings": "second compound 1 µM, first compound 0.0316 µM"}, "[20]": {"settings": "second compound 1 µM, first compound 0.1 µM"}, "[21]": {"settings": "second compound 1 µM, first compound 0.316 µM"}, "[22]": {"settings": "second compound 1 µM, first compound 1 µM"}, "[23]": {"settings": "second compound 1 µM, first compound 3.16 µM"}, "[24]": {"settings": "second compound 1 µM, first compound 10 µM"}, "[25]": {"settings": "second compound 3.16 µM, first compound 0.0316 µM"}, "[26]": {"settings": "second compound 3.16 µM, first compound 0.1 µM"}, "[27]": {"settings": "second compound 3.16 µM, first compound 0.316 µM"}, "[28]": {"settings": "second compound 3.16 µM, first compound 1 µM"}, "[29]": {"settings": "second compound 3.16 µM, first compound 3.16 µM"}, "[30]": {"settings": "second compound 3.16 µM, first compound 10 µM"}, "[31]": {"settings": "second compound 10 µM, first compound 0.0316 µM"}, "[32]": {"settings": "second compound 10 µM, first compound 0.1 µM"}, "[33]": {"settings": "second compound 10 µM, first compound 0.316 µM"}, "[34]": {"settings": "second compound 10 µM, first compound 1 µM"}, "[35]": {"settings": "second compound 10 µM, first compound 3.16 µM"}, "[36]": {"settings": "second compound 10 µM, first compound 10 µM"}},
  "data": [
    {"compound": "CC1COCCN1c1cc(C2(O)CC3CCC(C2)O3)c2cnn(-c3ccn[nH]3)c2n1", "note": "(centres undefined) + COC1C(OC(N)=O)C(O)C(Oc2ccc3c(O)c(NC(=O)c4ccc(O)c(CC=C(C)C)c4)c(=O)oc3c2C)OC1(C)C;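 also: spheroids exposed to drugs for seven days before readout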;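 as to viability, T/C: percent viability relative to DMSO vehicle control taken as 100%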", "values": [
      {"measurement": "IC50", "setting": "second compound 0.0316 µM", "result": 0.0661, "unit": "µM"},
      {"measurement": "IC50", "setting": "second compound 0.1 µM", "result": 0.0994, "unit": "µM"},
      {"measurement": "IC50", "setting": "second compound 0.316 µM", "result": 0.103, "unit": "µM"},
      {"measurement": "IC50", "setting": "second compound 1 µM", "result": 0.0758, "unit": "µM"},
      {"measurement": "IC50", "setting": "second compound 3.16 µM", "result": 0.0868, "unit": "µM"},
      {"measurement": "IC50", "setting": "second compound 10 µM", "result": 0.0765, "unit": "µM"},
      {"measurement": "viability, T/C", "setting": "[1]", "result": 74.8, "unit": "%"},
      {"measurement": "viability, T/C", "setting": "[2]", "result": 36.6, "unit": "%"},
      {"measurement": "viability, T/C", "setting": "[3]", "result": 14.5, "unit": "%"},
      {"measurement": "viability, T/C", "setting": "[4]", "result": 10.8, "unit": "%"},
      {"measurement": "viability, T/C", "setting": "[5]", "result": 7.52, "unit": "%"},
      {"measurement": "viability, T/C", "setting": "[6]", "result": 2.19, "unit": "%"},
      {"measurement": "viability, T/C", "setting": "[7]", "result": 82.9, "unit": "%"},
      {"measurement": "viability, T/C", "setting": "[8]", "result": 49.9, "unit": "%"},
      {"measurement": "viability, T/C", "setting": "[9]", "result": 11.2, "unit": "%"},
      {"measurement": "viability, T/C", "setting": "[10]", "result": 8.68, "unit": "%"},
      {"measurement": "viability, T/C", "setting": "[11]", "result": 7.3, "unit": "%"},
      {"measurement": "viability, T/C", "setting": "[12]", "result": 2.55, "unit": "%"},
      {"measurement": "viability, T/C", "setting": "[13]", "result": 90, "unit": "%"},
      {"measurement": "viability, T/C", "setting": "[14]", "result": 51.2, "unit": "%"},
      {"measurement": "viability, T/C", "setting": "[15]", "result": 12.9, "unit": "%"},
      {"measurement": "viability, T/C", "setting": "[16]", "result": 10.9, "unit": "%"},
      {"measurement": "viability, T/C", "setting": "[17]", "result": 6.18, "unit": "%"},
      {"measurement": "viability, T/C", "setting": "[18]", "result": 2.42, "unit": "%"},
      {"measurement": "viability, T/C", "setting": "[19]", "result": 77.8, "unit": "%"},
      {"measurement": "viability, T/C", "setting": "[20]", "result": 41.4, "unit": "%"},
      {"measurement": "viability, T/C", "setting": "[21]", "result": 11.6, "unit": "%"},
      {"measurement": "viability, T/C", "setting": "[22]", "result": 10.2, "unit": "%"},
      {"measurement": "viability, T/C", "setting": "[23]", "result": 6.65, "unit": "%"},
      {"measurement": "viability, T/C", "setting": "[24]", "result": 1.98, "unit": "%"},
      {"measurement": "viability, T/C", "setting": "[25]", "result": 71.9, "unit": "%"},
      {"measurement": "viability, T/C", "setting": "[26]", "result": 47, "unit": "%"},
      {"measurement": "viability, T/C", "setting": "[27]", "result": 11.7, "unit": "%"},
      {"measurement": "viability, T/C", "setting": "[28]", "result": 9.21, "unit": "%"},
      {"measurement": "viability, T/C", "setting": "[29]", "result": 7.19, "unit": "%"},
      {"measurement": "viability, T/C", "setting": "[30]", "result": 2.23, "unit": "%"},
      {"measurement": "viability, T/C", "setting": "[31]", "result": 75.4, "unit": "%"},
      {"measurement": "viability, T/C", "setting": "[32]", "result": 42.4, "unit": "%"},
      {"measurement": "viability, T/C", "setting": "[33]", "result": 10.3, "unit": "%"},
      {"measurement": "viability, T/C", "setting": "[34]", "result": 9.86, "unit": "%"},
      {"measurement": "viability, T/C", "setting": "[35]", "result": 7.38, "unit": "%"},
      {"measurement": "viability, T/C", "setting": "[36]", "result": 2.73, "unit": "%"}
    ]},
    {"compound": "COc1cccc2c1C(=O)c1c(O)c3c(c(O)c1C2=O)CC(O)(C(=O)CO)CC3OC1CC(N)C(O)C(C)O1", "note": "(centres undefined) + Cc1cccc(N(C)C(=O)C2C(O)CCN2c2nc(C)cc(C(F)(F)F)c2C#N)c1", "values": [
      {"measurement": "IC50", "setting": "second compound 0.0316 µM", "result": 0.0585, "unit": "µM"},
      {"measurement": "IC50", "setting": "second compound 0.1 µM", "result": 0.0635, "unit": "µM"},
      {"measurement": "IC50", "setting": "second compound 0.316 µM", "result": 0.052, "unit": "µM"},
      {"measurement": "IC50", "setting": "second compound 1 µM", "result": 0.0541, "unit": "µM"},
      {"measurement": "IC50", "setting": "second compound 3.16 µM", "result": 0.0483, "unit": "µM"},
      {"measurement": "IC50", "setting": "second compound 10 µM", "result": "< 0.0316", "unit": "µM"},
      {"measurement": "viability, T/C", "setting": "[1]", "result": 80.6, "unit": "%"},
      {"measurement": "viability, T/C", "setting": "[2]", "result": 22, "unit": "%"},
      {"measurement": "viability, T/C", "setting": "[3]", "result": 9.56, "unit": "%"},
      {"measurement": "viability, T/C", "setting": "[4]", "result": 6.15, "unit": "%"},
      {"measurement": "viability, T/C", "setting": "[5]", "result": 0.89, "unit": "%"},
      {"measurement": "viability, T/C", "setting": "[6]", "result": 0.14, "unit": "%"},
      {"measurement": "viability, T/C", "setting": "[7]", "result": 82.8, "unit": "%"},
      {"measurement": "viability, T/C", "setting": "[8]", "result": 28.3, "unit": "%"},
      {"measurement": "viability, T/C", "setting": "[9]", "result": 9.45, "unit": "%"},
      {"measurement": "viability, T/C", "setting": "[10]", "result": 5.6, "unit": "%"},
      {"measurement": "viability, T/C", "setting": "[11]", "result": 1.37, "unit": "%"},
      {"measurement": "viability, T/C", "setting": "[12]", "result": 0.84, "unit": "%"},
      {"measurement": "viability, T/C", "setting": "[13]", "result": 70.5, "unit": "%"},
      {"measurement": "viability, T/C", "setting": "[14]", "result": 23.1, "unit": "%"},
      {"measurement": "viability, T/C", "setting": "[15]", "result": 7.91, "unit": "%"},
      {"measurement": "viability, T/C", "setting": "[16]", "result": 6.47, "unit": "%"},
      {"measurement": "viability, T/C", "setting": "[17]", "result": 2, "unit": "%"},
      {"measurement": "viability, T/C", "setting": "[18]", "result": 1.9, "unit": "%"},
      {"measurement": "viability, T/C", "setting": "[19]", "result": 74.8, "unit": "%"},
      {"measurement": "viability, T/C", "setting": "[20]", "result": 20.8, "unit": "%"},
      {"measurement": "viability, T/C", "setting": "[21]", "result": 9.58, "unit": "%"},
      {"measurement": "viability, T/C", "setting": "[22]", "result": 5.67, "unit": "%"},
      {"measurement": "viability, T/C", "setting": "[23]", "result": 0.65, "unit": "%"},
      {"measurement": "viability, T/C", "setting": "[24]", "result": 1.38, "unit": "%"},
      {"measurement": "viability, T/C", "setting": "[25]", "result": 69.5, "unit": "%"},
      {"measurement": "viability, T/C", "setting": "[26]", "result": 15.7, "unit": "%"},
      {"measurement": "viability, T/C", "setting": "[27]", "result": 7.22, "unit": "%"},
      {"measurement": "viability, T/C", "setting": "[28]", "result": 7.14, "unit": "%"},
      {"measurement": "viability, T/C", "setting": "[29]", "result": 1.2, "unit": "%"},
      {"measurement": "viability, T/C", "setting": "[30]", "result": 0.28, "unit": "%"},
      {"measurement": "viability, T/C", "setting": "[31]", "result": 48.5, "unit": "%"},
      {"measurement": "viability, T/C", "setting": "[32]", "result": 12, "unit": "%"},
      {"measurement": "viability, T/C", "setting": "[33]", "result": 9.32, "unit": "%"},
      {"measurement": "viability, T/C", "setting": "[34]", "result": 4.59, "unit": "%"},
      {"measurement": "viability, T/C", "setting": "[35]", "result": 0.51, "unit": "%"},
      {"measurement": "viability, T/C", "setting": "[36]", "result": 0.38, "unit": "%"}
    ]}
  ]
}
